Results reported in patent US4203990A, “Anti-diarrheal 2-substituted quinuclidines” (G. D. Searle & Co., priority 1979, dated 1980).

Key:
[1] = system: gastrointestinal propulsive motility; assay: Mouse Cecal Test (charcoal in cecum, inhibition of gastrointestinal propulsive motility); assay type: in vivo, male Charles River mice; settings: oral/IG, test compound 30 min before charcoal, cecum examined 3.5 h after charcoal, logistic method of Berkson
Source text: The present compounds are potent anti-diarrheal agents as evidenced by their ability to inhibit gastrointestinal propulsive motility as set forth in the following tests:
The method used for this assay is a modification of the techniques previously described by Macht and Barba-Gose, J. Amer. Pharm. Ass., 20, 558 (1931), and Janssen and Jageneau, J. Pharm. Pharmacol., 9, 381 (1957). Details are as follows:
A group of six, male Charles River mice weighing 20-25 g. which have been previously fasted for 24 hours are pretreated with the test compounds administered orally as a solution in water or suspended in 0.5% methyl cellulose. A constant volume of 10 ml./kg. is employed. Thirty minutes following administration of the test compounds, the animals are given a single oral dose of charcoal which consists of 0.2 ml. per mouse of 10% charcoal suspended in 1.0% methyl cellulose. Three and a half hours after charcoal administration, the animals are sacrificed and the cecum examined for the absence or presence of charcoal on an all-or-none basis.
The median effective dose (ED50) is then calculated for each compound using the logistic method of Berkson (1953).

[2] = system: castor oil-induced diarrhea; assay: Castor Oil-Induced Diarrhea in the Rat; assay type: in vivo, Charles River male rats; settings: po, intragastric, 1 h before castor oil (1.0 ml per rat), at 2 hours past castor oil, method of Berkson
Protocol: Adult Charles River male rats are fasted in community cages for 24 hours prior to the test, with free access to water. The test compound is then administered intragastrically (suspended on 0.5% methyl cellulose) one hour prior to the intragastric administration of a dose of 1.0 ml. castor oil per rat. The rats are then observed for the presence or absence of diarrhea at hourly intervals for up to 8 hours past the castor oil administration. Using the method of Berkson (1953), the median effective dose (ED50) values are calculated at each hourly interval for the test compound.
The median effective dose at 2 hours past the castor oil administration for the following representative compound of the present invention in the castor oil-induced diarrhea in the Rat test is: […]

Structure (SMILES) | ED50 [1] [mg/kg] | ED50 [2] [mg/kg]
Cc1nnc(C(CC2CC3CCN2CC3)(c2ccccc2)c2ccccc2)o1.Cl (stereo not shown) [2-[2-(5-methyl-1,3,4-oxadiazol-2-yl)-2,2-diphenylethyl]-1-azabicyclo[2.2.2]octane hydrochloride] | 4.4 ± 1.3 | –
Cl.c1ccc(C(CC2CC3CCN2CC3)(c2ccccc2)c2ccccc2)cc1 (stereo not shown) [2-(2,2,2-triphenylethyl)-1-azabicyclo[2.2.2] octane hydrochloride] | 0.9 ± 0.2 | 0.2 ± 0.05
Cl.c1ccc(C(CC2CC3CCN2CC3)(c2ccccc2)c2ccccn2)cc1 (stereo not shown) [2-[2,2-diphenyl-2-(2-pyridyl)ethyl]-1-azabicyclo[2.2.2]octane hydrochloride] | 18.1 ± 10.3 | –
